Results: PubChem BioAssay AID206 (DTP/NCI, 2004)
Values joined by “and” are separate entries in the source; they are usually repeats but may differ in a detail not shown here. Equal values may be shown once. Results filed as inconclusive are left out.

Test system: nude mice, HT29 intrarenal xenograft, tumor weight T/C
Assay: NCI In Vivo Anticancer Drug Screen. Data for tumor model HT29;CX-1 Human Adenocarcinoma (MER+) (intrarenal inoculation) in NU/NU Swiss (nude) mice
Conditions: endpoint: mean tumor weight change, higher = larger tumour
In short: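 Endpoint measured as tumor size or survival; ratio reported is treated group over vehicle controls.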

[1] = dose: 37.5 mg/kg/injection, schedule: Q04DX004 (sc), vehicle: Klucel (hydroxypropylcellulose) (HPC)
[2] = dose: 75.0 mg/kg/injection, schedule: Q04DX004 (sc), vehicle: Klucel (hydroxypropylcellulose) (HPC)
[3] = dose: 150.0 mg/kg/injection, schedule: Q04DX004 (sc), vehicle: Klucel (hydroxypropylcellulose) (HPC)
[4] = dose: 300.0 mg/kg/injection, schedule: Q04DX004 (sc), vehicle: Klucel (hydroxypropylcellulose) (HPC)
[5] = dose: 150.0 mg/kg/injection, schedule: Q04DX004 (sc), vehicle: saline with Tween-80
[6] = dose: 300.0 mg/kg/injection, schedule: Q04DX004 (sc), vehicle: saline with Tween-80
[7] = dose: 600.0 mg/kg/injection, schedule: Q04DX004 (sc), vehicle: saline with Tween-80
[8] = dose: 600.0 mg/kg/injection, schedule: Q04DX004 (sc), vehicle: Klucel (hydroxypropylcellulose) (HPC)

SMILES: CN(Cc1cnc2nc(N)nc(N)c2n1)c1c(Cl)cc(C(=O)NC(CCC(=O)O)C(=O)O)cc1Cl (stereo not given)
- T/C (dose: 12.5 mg/kg/injection, schedule: Q01DX010 (sc), vehicle: Klucel (hydroxypropylcellulose) (HPC)): 166 % of control
- T/C (dose: 25.0 mg/kg/injection, schedule: Q01DX010 (sc), vehicle: Klucel (hydroxypropylcellulose) (HPC)): 86 % of control

SMILES: C1CCC2OCCOCCOC3CCCCC3OCCOCCOC2C1 (stereo not given)
- T/C [1]: 89 % of control
- T/C [2]: 89 % of control

SMILES: C=Cc1cnc([N+](=O)[O-])n1C
- T/C [3]: 110 % of control
- T/C [4]: 108 % of control

SMILES: CC1C=NNC1=O (stereo not given)
- T/C (dose: 200.0 mg/kg/injection, schedule: Q01DX010 (sc), vehicle: saline with Tween-80): 91 % of control
- T/C (dose: 400.0 mg/kg/injection, schedule: Q01DX010 (sc), vehicle: saline with Tween-80): 64 % of control
- T/C (dose: 800.0 mg/kg/injection, schedule: Q01DX010 (sc), vehicle: saline with Tween-80): 105 % of control

SMILES: C=CS(C=C)=NS(=O)(=O)c1ccc(C)cc1
- T/C (dose: 18.75 mg/kg/injection, schedule: Q04DX004 (sc), vehicle: Klucel (hydroxypropylcellulose) (HPC)): 91 % of control
- T/C [1]: 60 % of control

SMILES: CO[C@@H]1[C@H](O)CC[C@]2(CO2)[C@H]1[C@@]1(C)O[C@@H]1CC=C(C)C
- T/C (dose: 75.0 mg/kg/injection, schedule: Q04DX004 (sc), vehicle: saline with Tween-80): 108 % of control
- T/C [5]: 179 % of control
- T/C [6]: 108 % of control
- T/C [7]: 110 % of control

SMILES: CC1=CC(C)(C)Nc2ccc(CSc3ccccc3)cc21
- T/C (dose: 75.0 mg/kg/injection, schedule: Q01DX010 (sc), vehicle: saline + Tween-80 + alcohol): 53 % of control
- T/C (dose: 150.0 mg/kg/injection, schedule: Q01DX010 (sc), vehicle: saline + Tween-80 + alcohol): 74 % of control
- T/C (dose: 300.0 mg/kg/injection, schedule: Q01DX010 (sc), vehicle: saline + Tween-80 + alcohol): 50 % of control
- T/C (dose: 600.0 mg/kg/injection, schedule: Q01DX010 (sc), vehicle: saline + Tween-80 + alcohol): 66 % of control

SMILES: O=C1C(=O)c2ccccc2C(O)=C1CC=C(Cl)Cl
- T/C (dose: 100.0 mg/kg/injection, schedule: Q01DX010 (sc), vehicle: water): 183 % of control
- T/C (dose: 400.0 mg/kg/injection, schedule: Q01DX010 (sc), vehicle: water): 74 % of control and 213 % of control

SMILES: Cc1cn(C2CC(O)C(CO)O2)c(=O)[nH]c1=O (stereo not given)
- T/C (dose: 400.0 mg/kg/injection, schedule: Q04DX004 (sc), vehicle: saline): 113 % of control
- T/C (dose: 800.0 mg/kg/injection, schedule: Q04DX004 (sc), vehicle: saline): 94 % of control
- T/C (dose: 1600.0 mg/kg/injection, schedule: Q04DX004 (sc), vehicle: saline): 102 % of control
- T/C (dose: 3200.0 mg/kg/injection, schedule: Q04DX004 (sc), vehicle: saline): 81 % of control

SMILES: OCC1OC(n2cnc3c2NC=NC[C@H]3O)CC1O (stereo not given in full)
- T/C (dose: 1.0 mg/kg/injection, schedule: Q01DX010 (sc), vehicle: water): 168 % of control
- T/C (dose: 2.0 mg/kg/injection, schedule: Q01DX010 (sc), vehicle: water): 176 % of control

SMILES: OC1CCCC2CCC[N-]C12.OC1CCCC2CCC[N-]C12.[Mn+2] (stereo not given)
- T/C [3]: 114 % of control
- T/C [8]: 124 % of control

SMILES: O=[Te]=O
- T/C (dose: 25.0 mg/kg/injection, schedule: Q04DX004 (sc), vehicle: Klucel (hydroxypropylcellulose) (HPC)): 170 % of control
- T/C (dose: 50.0 mg/kg/injection, schedule: Q04DX004 (sc), vehicle: Klucel (hydroxypropylcellulose) (HPC)): 74 % of control

SMILES: O=[N+]([O-])c1ccc(Sc2ccncn2)c([N+](=O)[O-])c1
- T/C [5]: 44 % of control
- T/C [6]: 85 % of control
- T/C [7]: 85 % of control and 100 % of control
- T/C (dose: 1200.0 mg/kg/injection, schedule: Q04DX004 (sc), vehicle: saline with Tween-80): 73 % of control
- T/C (dose: 2400.0 mg/kg/injection, schedule: Q04DX004 (sc), vehicle: saline with Tween-80): 86 % of control

SMILES: CC(C)NC(=O)N(CCCCBr)N=O
- T/C [2]: 174 % of control
- T/C [3]: 182 % of control
- T/C [4]: 91 % of control
- T/C [8]: 108 % of control
